Measured values from ChEMBL document CHEMBL3992555, “Design, synthesis and preliminary biological evaluation of indole-3-carboxylic acid-based skeleton of Bcl-2/Mcl-1 dual inhibitors” (Bioorg Med Chem, 2017).
pIC50, pKi: −log10 of the molar value. Values belong to the compound of their own block, whether it stands above or below them.

Key:
Bcl-2-like protein 1 = Bcl-2-like protein 1 (Homo sapiens, UniProt Q07817); test: Inhibition of N-terminal FAM-labeled Bid-BH3 peptide binding to Bcl-XL (unknown origin) preincubated for 30 mins followed by N-terminal FAM-labeled Bid-BH3 peptide addition measured after 20 mins by fluorescence polarization assay
[1] = target: Apoptosis regulator Bcl-2 (Homo sapiens, UniProt P10415); test: Inhibition of N-terminal FAM-labeled Bid-BH3 peptide binding to Bcl2 (unknown origin) preincubated for 30 mins followed by N-terminal FAM-labeled Bid-BH3 peptide addition measured after 20 mins by fluorescence polarization assay
[2] = target: Induced myeloid leukemia cell differentiation protein Mcl-1 (Homo sapiens, UniProt Q07820); test: Inhibition of N-terminal FAM-labeled Bid-BH3 peptide binding to MCL1 (unknown origin) preincubated for 30 mins followed by N-terminal FAM-labeled Bid-BH3 peptide addition measured after 20 mins by fluorescence polarization assay
K562 = test: Antiproliferative activity against human K562 cells after 48 hrs by MTT assay; type: functional, cell-based; conditions: K562, 48 h
PC-3 = test: Antiproliferative activity against human PC3 cells after 48 hrs by MTT assay; type: functional, cell-based; conditions: PC-3, 48 h
MDA-MB-231 = test: Antiproliferative activity against human MDA-MB-231 cells after 48 hrs by MTT assay; type: functional, cell-based; conditions: MDA-MB-231, 48 h

Chain of Apoptosis regulator Bcl-2 (P10415 whole entry): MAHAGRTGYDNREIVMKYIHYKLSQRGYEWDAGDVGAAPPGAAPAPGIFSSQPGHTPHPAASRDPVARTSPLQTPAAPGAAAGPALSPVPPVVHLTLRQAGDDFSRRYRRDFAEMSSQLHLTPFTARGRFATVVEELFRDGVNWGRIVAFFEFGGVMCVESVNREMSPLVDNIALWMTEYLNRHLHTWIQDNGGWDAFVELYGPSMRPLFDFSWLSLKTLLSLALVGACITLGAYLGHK
Chain of Bcl-2-like protein 1 (Q07817 whole entry): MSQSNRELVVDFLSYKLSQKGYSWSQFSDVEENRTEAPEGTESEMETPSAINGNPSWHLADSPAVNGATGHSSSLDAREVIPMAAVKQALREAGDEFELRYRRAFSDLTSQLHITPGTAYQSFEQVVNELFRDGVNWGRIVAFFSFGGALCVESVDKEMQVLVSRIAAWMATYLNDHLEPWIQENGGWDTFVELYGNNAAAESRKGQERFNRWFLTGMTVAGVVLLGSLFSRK
Chain of Induced myeloid leukemia cell differentiation protein Mcl-1 (Q07820 whole entry): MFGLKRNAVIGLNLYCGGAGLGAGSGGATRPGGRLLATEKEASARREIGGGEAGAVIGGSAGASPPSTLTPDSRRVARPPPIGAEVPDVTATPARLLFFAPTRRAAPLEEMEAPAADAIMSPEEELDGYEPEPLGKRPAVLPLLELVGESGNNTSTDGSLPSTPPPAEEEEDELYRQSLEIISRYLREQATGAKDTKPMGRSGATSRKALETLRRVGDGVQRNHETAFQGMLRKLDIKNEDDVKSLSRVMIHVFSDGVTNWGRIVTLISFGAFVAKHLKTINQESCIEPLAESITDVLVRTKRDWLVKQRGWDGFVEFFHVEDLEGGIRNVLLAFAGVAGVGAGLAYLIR

Structure (SMILES): Cc1ccc(S(=O)(=O)NC(=O)[C@H](Cc2ccccc2)N2C(=O)/C(=C/c3ccc(-c4ccccc4)cc3)SC2=S)cc1
pKi (Bcl-2-like protein 1): 6.09 | pKi [1]: 6.12 | pKi [2]: 6.36

Structure (SMILES): COc1ccc(-c2ccc(Cn3cc(C(=O)N[C@@H](Cc4ccc(OCc5ccccc5)cc4)C(=O)NS(=O)(=O)c4ccc(Cl)c([N+](=O)[O-])c4)c4ccccc43)cc2)cc1
pKi [1]: < 5.00

Structure (SMILES): COc1ccc(-c2ccc(Cn3cc(C(=O)N[C@@H](Cc4ccccc4)C(=O)NS(=O)(=O)c4ccccc4)c4ccccc43)cc2)cc1
pKi [1]: 5.89

Structure (SMILES): CC(C)C[C@H](NC(=O)c1cn(Cc2ccc(-c3ccc(Cl)cc3)cc2)c2ccccc12)C(=O)NS(=O)(=O)c1ccccc1
pKi (Bcl-2-like protein 1): 5.21 | pKi [1]: 6.04 | pKi [2]: 6.22

Structure (SMILES): O=C(N[C@@H](Cc1ccc(Br)cc1)C(=O)NS(=O)(=O)c1ccccc1)c1cn(Cc2ccc(-c3ccc(Cl)cc3)cc2)c2ccccc12
pKi [1]: 6.04

Structure (SMILES): O=C(N[C@@H](Cc1ccccc1)C(=O)NS(=O)(=O)c1ccccc1)c1cn(Cc2ccc(-c3ccccc3)cc2)c2ccccc12
pKi [1]: < 5.00

Structure (SMILES): COc1ccc(-c2ccc(Cn3cc(C(=O)N[C@@H](Cc4c[nH]c5ccccc45)C(=O)NS(=O)(=O)c4ccc(Cl)c([N+](=O)[O-])c4)c4ccccc43)cc2)cc1
pKi [1]: < 5.00

Structure (SMILES): COc1ccc(-c2ccc(Cn3cc(C(=O)N[C@@H](Cc4ccc(OCc5ccc([N+](=O)[O-])cc5)cc4)C(=O)NS(=O)(=O)c4ccc(Cl)c([N+](=O)[O-])c4)c4ccccc43)cc2)cc1
pKi [1]: < 5.00

Structure (SMILES): O=C(N[C@@H](Cc1ccccc1)C(=O)NS(=O)(=O)c1ccccc1)c1cn(Cc2ccc(-c3ccc(Cl)cc3)cc2)c2ccccc12
pKi (Bcl-2-like protein 1): 5.68 | pKi [1]: 6.13 | pKi [2]: 6.31 | pIC50 (K562): 4.49 | pIC50 (PC-3): 4.63 | pIC50 (MDA-MB-231): 4.53

Structure (SMILES): COc1ccc(-c2ccc(Cn3cc(C(=O)N[C@@H](Cc4ccccc4)C(=O)O)c4ccccc43)cc2)cc1
pKi [1]: < 5.00

Structure (SMILES): O=C(N[C@@H](Cc1ccc(OCc2ccccc2)cc1)C(=O)NS(=O)(=O)c1ccc(Cl)c([N+](=O)[O-])c1)c1cn(Cc2ccc(-c3ccccc3)cc2)c2ccccc12
pKi [1]: < 5.00

Structure (SMILES): O=C(N[C@@H](Cc1ccc(OCc2ccc([N+](=O)[O-])cc2)cc1)C(=O)NS(=O)(=O)c1ccc(Cl)c([N+](=O)[O-])c1)c1cn(Cc2ccc(-c3ccccc3)cc2)c2ccccc12
pKi [1]: < 5.00

Structure (SMILES): COc1ccc(-c2ccc(Cn3cc(C(=O)N[C@@H](Cc4c[nH]c5ccccc45)C(=O)NS(=O)(=O)c4ccc(C)cc4)c4ccccc43)cc2)cc1
pKi [1]: 6.12 | pKi [2]: 6.28 | pIC50 (K562): 5.00 | pIC50 (PC-3): 4.74 | pIC50 (MDA-MB-231): 4.94

Structure (SMILES): Cc1ccc(-c2ccc(Cn3cc(C(=O)N[C@@H](Cc4ccc(OCc5ccccc5)cc4)C(=O)NS(=O)(=O)c4ccc(Cl)c([N+](=O)[O-])c4)c4ccccc43)cc2)cc1
pKi [1]: < 5.00

Structure (SMILES): Cc1cc2c(C(C)C)c(O)c(O)c(C=O)c2c(O)c1-c1c(C)cc2c(C(C)C)c(O)c(O)c(C=O)c2c1O [GOSSYPOL]
pIC50 (K562): 5.08 | pIC50 (PC-3): 5.07 | pIC50 (MDA-MB-231): 5.07

The next lines start with the values.

pKi [1]: < 5.00
Structure (SMILES): O=C(N[C@@H](Cc1ccc(OCc2ccc([N+](=O)[O-])cc2)cc1)C(=O)NS(=O)(=O)c1ccc(Cl)c([N+](=O)[O-])c1)c1cn(Cc2ccc(-c3ccc(Cl)cc3)cc2)c2ccccc12

pKi [1]: 5.59
Structure (SMILES): O=C(N[C@@H](Cc1ccccc1)C(=O)NS(=O)(=O)c1ccc(Cl)c([N+](=O)[O-])c1)c1cn(Cc2ccc(-c3ccccc3)cc2)c2ccccc12

pKi [1]: < 5.00
Structure (SMILES): O=C(N[C@@H](Cc1ccc(OCc2ccccc2)cc1)C(=O)NS(=O)(=O)c1ccc(Cl)c([N+](=O)[O-])c1)c1cn(Cc2ccc(-c3ccc(Cl)cc3)cc2)c2ccccc12

pKi (Bcl-2-like protein 1): 6.15 | pKi [1]: 6.59 | pKi [2]: 7.14 | pIC50 (K562): 4.71 | pIC50 (PC-3): 4.54 | pIC50 (MDA-MB-231): 4.53
Structure (SMILES): O=C(N[C@@H](Cc1ccccc1)C(=O)NS(=O)(=O)c1ccc(Cl)c([N+](=O)[O-])c1)c1cn(Cc2ccc(-c3ccc(Cl)cc3)cc2)c2ccccc12

pKi [1]: < 5.00
Structure (SMILES): CCCOc1ccc(C[C@H](NC(=O)c2cn(Cc3ccc(-c4ccc(Cl)cc4)cc3)c3ccccc23)C(=O)NS(=O)(=O)c2ccc(Cl)c([N+](=O)[O-])c2)cc1

pKi [1]: < 5.00
Structure (SMILES): O=C(N[C@@H](Cc1ccc(Br)cc1)C(=O)NS(=O)(=O)c1ccc(Cl)c([N+](=O)[O-])c1)c1cn(Cc2ccc(-c3ccccc3)cc2)c2ccccc12

pKi [1]: < 5.00
Structure (SMILES): CCCOc1ccc(C[C@H](NC(=O)c2cn(Cc3ccc(-c4ccc(Cl)cc4)cc3)c3ccccc23)C(=O)NS(=O)(=O)c2ccc([N+](=O)[O-])cc2)cc1

pKi [1]: < 5.00
Structure (SMILES): COc1ccc(-c2ccc(Cn3cc(C(=O)N[C@@H](Cc4ccc(Br)cc4)C(=O)NS(=O)(=O)c4ccc(Cl)c([N+](=O)[O-])c4)c4ccccc43)cc2)cc1

pKi [1]: < 5.00
Structure (SMILES): CCCOc1ccc(C[C@H](NC(=O)c2cn(Cc3ccc(-c4ccc(OC)cc4)cc3)c3ccccc23)C(=O)NS(=O)(=O)c2ccc(Cl)c([N+](=O)[O-])c2)cc1

pKi [1]: < 5.00
Structure (SMILES): O=C(N[C@@H](Cc1ccc(Br)cc1)C(=O)NS(=O)(=O)c1ccc(Cl)c([N+](=O)[O-])c1)c1cn(Cc2ccc(-c3ccc(Cl)cc3)cc2)c2ccccc12

pKi [1]: < 5.00
Structure (SMILES): COc1ccc(-c2ccc(Cn3cc(C(=O)N[C@@H](Cc4ccccc4)C(=O)NS(=O)(=O)c4ccc(Cl)c([N+](=O)[O-])c4)c4ccccc43)cc2)cc1

pKi [1]: 5.25
Structure (SMILES): CCCOc1ccc(C[C@H](NC(=O)c2cn(Cc3ccc(-c4ccccc4)cc3)c3ccccc23)C(=O)NS(=O)(=O)c2ccc(Cl)c([N+](=O)[O-])c2)cc1
